Columns and labels:
Test in all cases: MIC, antibacterial and synergistic activity
Format in all cases: cell-based
[1] = tested on: E. coli ATCC 25922; details: E. coli ATCC 25922 (Wt)
[2] = tested on: A. baumanii JMI 2659; details: A. baumanii JMI 2659 (Ges-14 (Cpase))
[3] = tested on: E.coli JMI 4103; details: E.coli JMI 4103 (KPC-2, Tem-1, CMY-Type)
[4] = tested on: E. coli JMI 4080
[5] = tested on: E. coli JMI 10767; details: E. coli JMI 10767 (Wt)
Experimental: (§1) In the Tables 10 - 12, compounds herein disclosed were tested in combination with various antibiotics against metallo β-lactamase producing bacteria. Table 3: Synergy of the inhibitor Ex. 1 (4 µg/mL) in combination with antibiotics

[6] = tested on: E. coli JMI 10768; details: E. coli JMI 10768 (CTX-M15 (Weak ESBL))
Experimental: as §1

[7] = tested on: E. coli JMI 10770; details: E. coli JMI 10770 (CTX-M15 (Hyper ESBL))
Experimental: as §1

[8] = tested on: E. coli JMI 2665
Experimental: as §1

[9] = tested on: E. coli JMI 2671
Method in brief: (§2)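 Synergy testing: antibiotic MIC vs MBL-producing strains in presence of inhibitor, fixed 4 µg/mL.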

[10] = tested on: K. pneumo JMI 2673; details: K. pneumo JMI 2673 (CTX-M14 (ESBL))
Method in brief: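 Compounds were evaluated together with various antibiotics to measure synergistic antibacterial activity. For each combination, the minimum inhibitory concentration of the antibiotic was recorded while the inhibitor was present at a constant 4 µg/mL.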

[11] = tested on: K. pneumo JMI 2674; details: K. pneumo JMI 2674 (CTX-M15 (ESBL))
Method in brief: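 Antibacterial activity was assessed as minimum inhibitory concentrations against a β-lactamase-producing bacterial strain. Each test inhibitor was combined with an antibiotic, with the inhibitor held at a fixed 4 µg/mL, to determine whether it acted synergistically and restored the antibiotic's effect against the resistant organism.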

[12] = tested on: K. pneumo JMI 2699; details: K. pneumo JMI 2699 (VIM-1, CTX-M3)
Method in brief: as §2

[13] = tested on: K. pneumo JMI 4088; details: K. pneumo JMI 4088 (KPC-3 (Cpase))
Method in brief: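 Minimum inhibitory concentrations were measured for antibiotics given together with the test inhibitor, held at 4 µg/mL, against bacteria that produce β-lactamase. The purpose was to see whether the inhibitor restores or boosts antibacterial activity, that is, synergy with the antibiotic.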

[14] = tested on: K.pneumo JMI 4109; details: K.pneumo JMI 4109 (SHV-1, SHV-12)
Method in brief: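 Antibacterial synergy was assessed by pairing each inhibitor compound, at a constant concentration of 4 µg/mL, with β-lactam antibiotics. The combinations were run against bacterial strains that produce β-lactamases, and the readout was the minimum inhibitory concentration of the antibiotic in the presence of the inhibitor.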

[15] = tested on: P. aerug JMI 2686; details: P. aerug JMI 2686 (KPC-2 (Cpase))
Method in brief: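 This antibacterial synergy assay measured the minimum inhibitory concentration of antibiotics combined with the disclosed inhibitor compounds. The inhibitor was held at 4 µg/mL throughout. The aim was to see whether the added compound strengthened the antibiotic's action against the tested bacteria.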

[16] = tested on: K. pneumo JMI 2681; details: K. pneumo JMI 2681 (Oxa-48 (Cpase))
[17] = tested on: P. aerug JMI 149; details: P. aerug JMI 149 (Bla+++D+)
[18] = tested on: E. cloacae JMI 36; details: E. cloacae JMI 36 (P99)
[19] = tested on: K. pneumo JMI 2673; details: K. pneumo JMI 2673 (CTX-M14 (ESBL)); substance alone
[20] = tested on: K. pneumo JMI 2674; details: K. pneumo JMI 2674 (CTX-M15 (ESBL)); substance alone
[21] = tested on: K. pneumo JMI 4088; details: K. pneumo JMI 4088 (KPC-3 (Cpase)); substance alone
[22] = tested on: E. coli JMI 10767; details: E. coli JMI 10767 (Wt); remark: listed apart in the source
[23] = tested on: E. coli JMI 10768; details: E. coli JMI 10768 (CTX-M15 (Weak ESBL)); Meropenem + inhibitor at 4 µg/mL
[24] = Aztreonam + inhibitor at 4 µg/mL
[25] = Ceftazidime + inhibitor at 4 µg/mL
[26] = Meropenem + inhibitor at 4 µg/mL

SMILES: O=C(NNC(=O)[C@H]1CC[C@H]2CN1C(=O)N2OS(=O)(=O)O)C1CC1 (stereo in doubt) [Ex. 7, (2R,5S)-N'-(cyclopropylcarbonyl)-7-oxo-6-(sulfooxy)-1,6-diazabicyclo[3.2.1]octane-2-carbohydrazide]
- MIC Aztreonam + inhibitor [1, 24]: ≤0.0625 µg/mL
- MIC Ceftazidime + inhibitor [1, 25]: ≤0.25 µg/mL
- MIC Meropenem + inhibitor [1, 26]: ≤0.0312 µg/mL
- MIC ([1]; Escherichia coli, ATCC25922, substance alone): > 16 µg/mL
- MIC Aztreonam + inhibitor [2, 24]: >4 µg/mL
- MIC Ceftazidime + inhibitor [2, 25]: >16 µg/mL
- MIC Meropenem + inhibitor [2, 26]: >2 µg/mL
- MIC ([2]; Acinetobacter baumannii, JMI2659, substance alone, read-out: MIC): > 16 µg/mL
- MIC Aztreonam + inhibitor [3, 24]: ≤0.062 µg/mL
- MIC Ceftazidime + inhibitor [3, 25]: ≤0.25 µg/mL
- MIC Meropenem + inhibitor [3, 26]: ≤0.0312 µg/mL
- MIC ([3]; Escherichia coli, JMI4103, substance alone): 2 µg/mL
- MIC Aztreonam + inhibitor ([4]; E. coli JMI 4080 (Tem-10), Aztreonam + inhibitor at 4 µg/mL): ≤0.062 µg/mL
- MIC Ceftazidime + inhibitor ([4]; E. coli JMI 4080 (Tem-10), Ceftazidime + inhibitor at 4 µg/mL): ≤0.25 µg/mL
- MIC Meropenem + inhibitor ([4]; E. coli JMI 4080 (Tem-10), Meropenem + inhibitor at 4 µg/mL): ≤0.0312 µg/mL
- MIC ([4]; Escherichia coli, JMI4080, E. coli JMI 4080 (Tem-10), substance alone): 4 µg/mL
- MIC Aztreonam + inhibitor [5, 24]: ≤0.062 µg/mL
- MIC Ceftazidime + inhibitor [5, 25]: ≤0.25 µg/mL
- MIC Aztreonam + inhibitor [6, 24]: ≤0.062 µg/mL
- MIC Ceftazidime + inhibitor [6, 25]: 2 µg/mL
- MIC ([6]; Escherichia coli, JMI10768, substance alone): 16 µg/mL
- MIC Aztreonam + inhibitor [7, 24]: ≤0.062 µg/mL
- MIC Ceftazidime + inhibitor [7, 25]: ≤0.25 µg/mL
- MIC Meropenem + inhibitor [7, 26]: ≤0.0312 µg/mL
- MIC Aztreonam + inhibitor ([8]; E. coli JMI 2665 (CMY-2 (Plasmid Cpase)), Aztreonam + inhibitor at 4 µg/mL): ≤0.062 µg/mL
- MIC Ceftazidime + inhibitor ([8]; E. coli JMI 2665 (CMY-2 (Plasmid Cpase)), Ceftazidime + inhibitor at 4 µg/mL): ≤0.25 µg/mL
- MIC ([8]; Escherichia coli, JMI2665): 2 µg/mL
- MIC Aztreonam + inhibitor ([9]; E. coli JMI 2671 (VIM-19 (Cpase)), Aztreonam + inhibitor at 4 µg/mL): ≤0.062 µg/mL
- MIC Ceftazidime + inhibitor ([9]; E. coli JMI 2671 (VIM-19 (Cpase)), Ceftazidime + inhibitor at 4 µg/mL): 0.5 µg/mL
- MIC Meropenem + inhibitor ([9]; E. coli JMI 2671 (VIM-19 (Cpase)), Meropenem + inhibitor at 4 µg/mL): 0.5 µg/mL
- MIC ([9]; Escherichia coli, JMI2671, E. coli JMI 2671 (VIM-19 (Cpase)), substance alone): 8 µg/mL
- MIC Aztreonam + inhibitor [10, 24]: ≤0.062 µg/mL
- MIC Ceftazidime + inhibitor [10, 25]: ≤0.25 µg/mL
- MIC Meropenem + inhibitor [10, 26]: ≤0.0312 µg/mL
- MIC Aztreonam + inhibitor [11, 24]: ≤0.062 µg/mL
- MIC Ceftazidime + inhibitor [11, 25]: ≤0.25 µg/mL
- MIC Meropenem + inhibitor [11, 26]: 0.125 µg/mL
- MIC Aztreonam + inhibitor [12, 24]: ≤0.062 µg/mL
- MIC Ceftazidime + inhibitor [12, 25]: 0.5 µg/mL
- MIC Meropenem + inhibitor [12, 26]: 0.5 µg/mL
- MIC ([12]; substance alone, read-out: MIC): 16 µg/mL
- MIC Aztreonam + inhibitor [13, 24]: 0.125 µg/mL
- MIC Ceftazidime + inhibitor [13, 25]: 1 µg/mL
- MIC Meropenem + inhibitor [13, 26]: 1 µg/mL
- MIC Aztreonam + inhibitor [14, 24]: 0.125 µg/mL
- MIC Ceftazidime + inhibitor [14, 25]: ≤0.25 µg/mL
- MIC Meropenem + inhibitor [14, 26]: ≤0.0312 µg/mL
- MIC Aztreonam + inhibitor [15, 24]: >4 µg/mL
- MIC Ceftazidime + inhibitor [15, 25]: >16 µg/mL
- MIC Meropenem + inhibitor [15, 26]: >2 µg/mL
- MIC Aztreonam + inhibitor [16, 24]: 0.25 µg/mL
- MIC Ceftazidime + inhibitor [16, 25]: 0.5 µg/mL
- MIC Meropenem + inhibitor [16, 26]: 0.25 µg/mL
- MIC ([16]; substance alone, read-out: MIC): > 16 µg/mL
- MIC Aztreonam + inhibitor [17, 24]: >4 µg/mL
- MIC Ceftazidime + inhibitor [17, 25]: >16 µg/mL
- MIC Meropenem + inhibitor [17, 26]: >2 µg/mL
- MIC ([17]; substance alone, read-out: MIC): > 16 µg/mL
- MIC Aztreonam + inhibitor [18, 24]: 0.125 µg/mL
- MIC Ceftazidime + inhibitor [18, 25]: 0.5 µg/mL
- MIC Meropenem + inhibitor [18, 26]: 0.125 µg/mL
- MIC ([18]; Enterobacter cloacae, JMI36, substance alone, read-out: MIC): > 16 µg/mL
- MIC [19]: > 16 µg/mL
- MIC [20]: > 16 µg/mL
- MIC [21]: > 16 µg/mL
- MIC Meropenem + inhibitor [22, 26]: ≤0.0312 µg/mL
- MIC ([22]; Escherichia coli, JMI10767, substance alone): 8 µg/mL
- MIC Meropenem + inhibitor [23]: ≤0.0312 µg/mL

Reference: EP2931723B1, “NEW BICYCLIC COMPOUNDS AND THEIR USE AS ANTIBACTERIAL AGENTS AND -LACTAMASE INHIBITORS” (Fedora Pharmaceuticals Inc., priority 2012, dated 2014)
